Reference: article PMC6690489 (Bioorganic & medicinal chemistry letters, 2018)

How the values were obtained:
[1] = predicted hepatic clearance; type: in vitro ADME; conditions: rat
[2] = molecular target: T1, human M4 (Homo sapiens, UniProt P08173); assay: calcium mobilization human M4/Gqi5 assay with EC20 acetylcholine; type: cell-based
T1 sequence (P08173 1-479): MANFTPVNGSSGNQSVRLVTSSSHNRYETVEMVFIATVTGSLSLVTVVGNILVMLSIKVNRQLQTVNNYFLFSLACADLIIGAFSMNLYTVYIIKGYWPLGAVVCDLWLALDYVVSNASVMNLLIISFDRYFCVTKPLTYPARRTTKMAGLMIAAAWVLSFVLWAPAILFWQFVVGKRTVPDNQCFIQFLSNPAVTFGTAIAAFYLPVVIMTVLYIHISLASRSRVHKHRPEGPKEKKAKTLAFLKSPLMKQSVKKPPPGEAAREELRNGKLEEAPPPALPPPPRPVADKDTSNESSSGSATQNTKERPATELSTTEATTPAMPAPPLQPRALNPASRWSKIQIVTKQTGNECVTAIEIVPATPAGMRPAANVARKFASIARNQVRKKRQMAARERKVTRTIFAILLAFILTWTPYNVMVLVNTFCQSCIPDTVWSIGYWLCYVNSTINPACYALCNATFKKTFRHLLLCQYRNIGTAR

[3] = system: CYP450; assay: CYP450 inhibition profile; type: in vitro ADME

SMILES | predicted hepatic clearance CLhep [1] [mL/min/kg] | IC50 [3] [nM] | also measured
Cc1nc2sc3c(NCC4CC4)nn(C)c3c2c(C)c1Cl [27d] | > 67 | – | –
COc1ccc(CNC(=O)c2cc3c(C)c(C)nnc3s2)cc1F [18a] | – | – | loss of potency relative to parent 4 ([2]; des-amino analog vs NH2-bearing 4): ~ 18 fold
COc1ccc(CNc2n[nH]c3c2sc2nc(C)cc(C)c23)cc1 [22a] | 66 | < 5000 | –
Cc1nc2sc3c(NCc4ccco4)nn(C)c3c2c(C)c1Cl [27e] | > 67 | – | –
COc1ccc(CNc2nn(C)c3c2sc2nnc(C)c(C)c23)cc1 [30a] | 67.8 | – | EC50 [2]: 44 nM
Cc1nnc2sc3c(NCc4ccc(S(C)(=O)=O)c(F)c4)nn(C)c3c2c1C [30b] | – | > 30000 | –
